Test results from PubChem BioAssay (NCI).
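Step 1: Grow cells in 96-well plates. Step 2: Expose to compound for 48 hours at 5 concentrations. Step 3: Interpolate endpoints linearly; if unreached, use highest concentration. GI50: concentration for 50% inhibition of growth. TGI denotes the concentration required for complete inhibition of growth.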

Legend:
Test in all cases: NCI anticancer screen, dose series, 48 h
M14 melanoma = system: M14 melanoma
SK-MEL-5 melanoma = system: SK-MEL-5 melanoma
K-562 leukemia = system: K-562 leukemia
A498 renal = system: A498 renal
NCI-H460 lung = system: NCI-H460 lung
OVCAR-8 ovarian = system: OVCAR-8 ovarian
MALME-3M melanoma = system: MALME-3M melanoma
SN12C renal = system: SN12C renal
SK-MEL-28 melanoma = system: SK-MEL-28 melanoma
TK-10 renal = system: TK-10 renal

Row | SMILES | TGI (M14 melanoma) | TGI (SK-MEL-5 melanoma) | TGI (K-562 leukemia) | TGI (A498 renal) | TGI (NCI-H460 lung) | TGI (OVCAR-8 ovarian) | TGI (MALME-3M melanoma) | TGI (SN12C renal) | TGI (SK-MEL-28 melanoma) | TGI (TK-10 renal) | GI50 (M14 melanoma) | GI50 (SK-MEL-5 melanoma) | GI50 (K-562 leukemia) | GI50 (A498 renal) | GI50 (NCI-H460 lung) | GI50 (OVCAR-8 ovarian) | GI50 (MALME-3M melanoma) | GI50 (SN12C renal) | GI50 (SK-MEL-28 melanoma) | GI50 (TK-10 renal)
1 | Cc1ccc2nc(-c3ccc(NC(=O)c4ccc(N)cc4)c(S(=O)(=O)O)c3)sc2c1 | > 100 µM | > 100 µM | > 100 µM | > 100 µM | > 100 µM | > 100 µM | > 100 µM | > 100 µM | > 100 µM | > 100 µM |  |  |  |  |  |  |  |  |  | 
2 | CC1=CC(O)C(C(O)(C(F)(F)F)C(F)(F)F)C(C)(C)C1 (stereo unspecified) |  | 0.163 µM | > 10 µM | 0.0823 µM | > 10 µM | > 10 µM | > 10 µM | > 10 µM | > 10 µM | > 10 µM |  |  |  |  |  |  |  |  |  | 
3 | OCCCSCCO | > 100 µM | > 100 µM | > 100 µM | > 100 µM | > 100 µM | > 100 µM | > 100 µM | > 100 µM | > 100 µM | > 100 µM |  |  |  |  |  |  |  |  |  | 
4 | Nc1cc(S(=O)(=O)O)cc2ccc(S(=O)(=O)O)cc12 | > 100 µM | > 100 µM | > 100 µM | > 100 µM | > 100 µM | > 100 µM | > 100 µM | > 100 µM | > 100 µM | > 100 µM |  |  |  |  |  |  |  |  |  | 
5 | Nc1nnc(CCC(=O)Nc2cc(Cl)ccc2Cl)n1N | > 100 µM | > 100 µM | > 100 µM | > 100 µM | > 100 µM | > 100 µM | > 100 µM | > 100 µM | > 100 µM | > 100 µM |  |  |  |  |  |  |  |  |  | 
6 | CS(C)(=O)=Nn1c(=O)n2n(c1=O)C1c3ccccc3C2c2ccccc21 | > 100 µM | > 100 µM | > 100 µM | > 100 µM | > 100 µM | > 100 µM | > 100 µM |  | > 100 µM | > 100 µM |  |  |  |  |  |  |  |  |  | 
7 | Cc1n[n+]([O-])c(C)cc1[N+](=O)[O-] | 30.7 µM | 29.8 µM |  | 40.6 µM | 28.4 µM | 31.6 µM | 35.3 µM | 28.1 µM | 31.9 µM | 24.5 µM |  |  |  |  |  |  |  |  |  | 
8 | CC1C(=O)c2cc3c(cc2CCN(C)Cc2c1ccc1c2OCO1)OCO3 (stereo unspecified) | > 75 µg/mL | > 75 µg/mL | > 75 µg/mL | > 75 µg/mL | > 75 µg/mL | > 75 µg/mL | > 75 µg/mL | > 75 µg/mL | > 75 µg/mL | > 75 µg/mL | 43.6 µg/mL | 37.1 µg/mL | 24.7 µg/mL | > 75 µg/mL | 40.3 µg/mL | > 75 µg/mL | > 75 µg/mL | > 75 µg/mL | 30.9 µg/mL | > 75 µg/mL
9 | COc1cccc(/C=N/[N-]C(N)=O)c1[O-].[Ni+2].[OH3+] | 2.08 µM | 1.65 µM | 2.31 µM | 3.15 µM | 1.65 µM | 1.66 µM | 2.2 µM | 1.49 µM | 1.72 µM | 2.74 µM |  |  |  |  |  |  |  |  |  | 
10 | CCOC(=O)c1c(-c2cccc(Cl)c2)c(C(=O)OC)c(C)c2sc(C=O)nc12 | 31.4 µM | 30.4 µM | 89.8 µM |  | 50.1 µM | 41.9 µM | 38 µM | 30.8 µM | 34.5 µM | 50 µM |  |  |  |  |  |  |  |  |  | 
11 | N#Cc1ccccc1C#C/C=C\C#Cc1ccccc1N | 11.3 µM | 19 µM | > 100 µM | 94.1 µM | > 100 µM | > 30 µM | 40.2 µM | 12.5 µM | > 74 µM | > 49.3 µM | 0.243 µM | 3.34 µM | 4.12 µM | 34.9 µM | 5.43 µM | 7.27 µM | 2.86 µM | 2.41 µM | 9.78 µM | 5.02 µM
12 | COc1cc(C2c3cc4c(cc3[C@@H](Nc3ccc(Oc5ccccc5)cc3)C3COC(=O)[C@H]23)OCO4)cc(OC)c1O (stereo partly specified) |  | 5.99 µM | > 32.4 µM | 9.6 µM | 12.2 µM | > 100 µM | > 100 µM | > 25.5 µM | > 100 µM |  |  |  |  |  |  |  |  |  |  | 
13 | Clc1ccc(Nc2nc(Nc3ccccc3)nc(Nc3ccc(-c4cc(-c5ccc(Cl)cc5)on4)cc3)n2)cc1 |  | > 100 µM | > 100 µM | 55.1 µM | > 100 µM | > 100 µM | 93 µM | > 100 µM | > 100 µM | > 100 µM |  | 24 µM | 21.4 µM | 3.38 µM | 17.9 µM | 21.4 µM | 31.5 µM | 24.8 µM | 40.3 µM | 19.2 µM
14 | Cc1oc(N)c(S(=O)(=O)c2cc3ccccc3n(O)c2=N)c1C | > 100 µM | > 100 µM |  | > 100 µM | > 100 µM | > 100 µM | > 100 µM | > 100 µM | > 100 µM | > 100 µM |  |  |  |  |  |  |  |  |  | 
15 | CC(=O)Nc1ccc(C(=O)NN2C(=O)C(Cl)C2c2cccc([N+](=O)[O-])c2)cc1 (stereo unspecified) |  | > 100 µM | > 100 µM |  | > 100 µM | > 100 µM | > 100 µM |  | > 100 µM | > 100 µM |  |  |  |  |  |  |  |  |  | 
16 | CC1=C[C@@H](C)C[C@]2(C)CC[C@H](O2)[C@]23CC[C@](CO)(C[C@H](O2)[C@@H]2O[C@@](C)(CC2=O)[C@@H](O)[C@H]2CC[C@@]4(CCC[C@@H](O4)[C@H](C)C(=O)O[C@H]4C[C@H]([C@]5(O)OCC[C@H](C)[C@@H]5O)O[C@H]4C=C1)O2)O3 | > 10 µM | > 10 µM | > 10 µM | 0.0156 µM | > 10 µM | > 4.19 µM | 0.196 µM | > 10 µM | 0.0391 µM | 0.0714 µM |  |  |  |  |  |  |  |  |  | 
17 | CCOCC(=O)N(C)c1cccc2c3c(n(C)c12)CCCCC3 |  | > 100 µM | > 100 µM | > 100 µM | > 100 µM | > 100 µM | > 100 µM | > 100 µM | > 100 µM |  |  |  |  |  |  |  |  |  |  | 
